Among the data in patent US20240336574A1 (LATIGO BIOTHERAPEUTICS, INC., priority 2021, published 2024) are IC50 values, retold here.

The target of this assay is T1, recombinant human NaV1.8 stably transfected HEK cells (Homo sapiens, UniProt Q9Y5Y9).
T1 construct: expressed in transfected cells; host or cells: HEK cells, stably transfected
As to the kind of experiment: Compound profiling on NaV1.8, human NaV1.8 cell line, SyncroPatch384PE automated patch clamp assay (Example 102, first set of compounds, Table 16). It is filed as cell-based. Conditions: human NaV1.8 HEK cells, Table 16 (first set of compounds). The method in brief: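 IC50s come from two read-outs: resting-state block (P1, 10 mV step from −120 mV) and inactivated-state block (P2, after 10 s at −40 mV), scaled between DMSO and 250 μM tetracaine. Compounds (20–0.001 μM final, 1:3 steps) were applied for 5 min, 15 s sweeps. Cells kept at 30 °C the day before.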
On the technique in general: In patch-clamp work, channel activity is measured electrically.

[1] abbreviates: inactivated state block (P2 measurement), read-out: P2IC50.
The mark [2] stands for this setting: resting state block (P1 measurement), read-out: P1IC50.

Like-named read-outs stand apart in the source and are kept apart here.

T1 sequence (Q9Y5Y9 whole entry): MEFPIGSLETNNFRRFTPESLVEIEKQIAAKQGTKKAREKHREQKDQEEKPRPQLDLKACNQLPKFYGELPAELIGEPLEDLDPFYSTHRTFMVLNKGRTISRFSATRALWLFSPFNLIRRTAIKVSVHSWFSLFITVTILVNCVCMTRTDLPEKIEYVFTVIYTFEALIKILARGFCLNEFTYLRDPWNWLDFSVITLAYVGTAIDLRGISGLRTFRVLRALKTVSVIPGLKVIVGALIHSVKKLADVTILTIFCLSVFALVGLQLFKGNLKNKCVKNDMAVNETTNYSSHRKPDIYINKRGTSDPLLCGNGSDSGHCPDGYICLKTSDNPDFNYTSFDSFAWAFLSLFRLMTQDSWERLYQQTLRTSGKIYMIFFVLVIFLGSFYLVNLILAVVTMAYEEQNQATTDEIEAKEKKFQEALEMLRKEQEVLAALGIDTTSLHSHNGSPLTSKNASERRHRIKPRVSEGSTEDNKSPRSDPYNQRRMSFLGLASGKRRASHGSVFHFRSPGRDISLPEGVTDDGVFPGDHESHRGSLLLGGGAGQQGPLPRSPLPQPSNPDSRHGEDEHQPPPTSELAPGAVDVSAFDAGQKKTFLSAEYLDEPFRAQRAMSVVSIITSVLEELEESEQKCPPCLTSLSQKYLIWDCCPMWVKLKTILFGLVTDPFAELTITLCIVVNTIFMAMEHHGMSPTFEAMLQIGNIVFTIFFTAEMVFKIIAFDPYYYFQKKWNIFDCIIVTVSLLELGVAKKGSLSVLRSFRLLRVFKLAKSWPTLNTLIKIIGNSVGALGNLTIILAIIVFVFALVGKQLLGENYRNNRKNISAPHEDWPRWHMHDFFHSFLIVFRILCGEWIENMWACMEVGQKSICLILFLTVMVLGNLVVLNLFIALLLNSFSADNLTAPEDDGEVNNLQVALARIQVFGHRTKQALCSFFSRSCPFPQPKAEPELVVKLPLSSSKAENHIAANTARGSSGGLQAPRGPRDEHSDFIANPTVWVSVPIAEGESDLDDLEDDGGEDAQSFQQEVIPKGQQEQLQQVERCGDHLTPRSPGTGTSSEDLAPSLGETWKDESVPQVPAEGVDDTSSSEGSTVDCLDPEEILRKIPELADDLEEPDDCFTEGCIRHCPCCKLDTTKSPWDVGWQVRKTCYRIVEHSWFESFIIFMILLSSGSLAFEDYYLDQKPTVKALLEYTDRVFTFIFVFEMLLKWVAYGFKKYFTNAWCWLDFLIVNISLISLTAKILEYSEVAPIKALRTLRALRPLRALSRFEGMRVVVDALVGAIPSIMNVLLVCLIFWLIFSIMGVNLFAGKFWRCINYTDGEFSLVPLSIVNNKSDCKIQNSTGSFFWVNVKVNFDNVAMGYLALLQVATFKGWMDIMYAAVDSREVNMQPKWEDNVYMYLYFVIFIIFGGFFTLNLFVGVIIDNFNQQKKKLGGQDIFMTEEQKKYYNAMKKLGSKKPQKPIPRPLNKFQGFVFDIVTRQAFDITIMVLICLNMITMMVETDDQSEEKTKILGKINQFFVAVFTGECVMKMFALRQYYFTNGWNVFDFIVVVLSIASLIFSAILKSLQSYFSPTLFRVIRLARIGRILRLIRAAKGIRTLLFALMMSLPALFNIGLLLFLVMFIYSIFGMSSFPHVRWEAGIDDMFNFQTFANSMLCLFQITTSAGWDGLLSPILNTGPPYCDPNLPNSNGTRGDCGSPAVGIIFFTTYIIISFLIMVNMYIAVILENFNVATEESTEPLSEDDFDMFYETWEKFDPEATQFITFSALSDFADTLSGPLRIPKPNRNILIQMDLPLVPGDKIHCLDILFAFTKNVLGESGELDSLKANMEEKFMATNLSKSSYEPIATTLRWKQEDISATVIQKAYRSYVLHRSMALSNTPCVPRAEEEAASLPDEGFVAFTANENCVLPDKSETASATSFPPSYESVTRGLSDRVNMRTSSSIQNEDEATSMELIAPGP

Consider `COc1cc(C#N)ccc1Oc1nc(C(F)(F)F)nc(C)c1C(=O)Nc1ccc(C(N)=O)cc1` [Compound 1744, N-(4-carbamoylphenyl)-4-(4-cyano-2-methoxy-phenoxy)-6-methyl-2-(trifluoromethyl)pyrimidine-5-carboxamide], for which the IC50 runs as follows: under setting [1], 40 to 200 nM; under setting [2], 40 to 200 nM.

On to `CC(C)Oc1ccc(Oc2ncc(C(F)(F)F)cc2C(=O)Nc2cccc(C(N)=O)c2)c(F)c1F` [Compound 1709], for which the IC50 is 20 to 40 nM under setting [1] and no more than 20 nM under setting [2]. In the same order, the values of `Cc1cc(F)ccc1Oc1ncc(Br)c(C)c1C(=O)Nc1cccc([S@@](C)(=N)=O)c1` [Compound 1728, 5-bromo-2-(4-fluoro-2-methylphenoxy)-N-{3-[(S)-imino(methyl)oxo-λ^6-sulfanyl]phenyl}-4-methylpyridine-3-carboxamide] are no more than 20 nM and no more than 20 nM.

As for `COc1cc(C#N)ccc1Oc1nnc(-c2ccc(C#N)cc2)c(C)c1C(=O)Nc1cccc([S@](C)(=N)=O)c1` [Compound 1531, (R)-3-(4-cyano-2-methoxyphenoxy)-6-(4-cyanophenyl)-5-methyl-N-(3-(S-methylsulfonimidoyl)phenyl)pyridazine-4-carboxamide], the IC50 by setting is: under setting [1], 40 to 200 nM; under setting [2], 40 to 200 nM.

Take `CS(=O)(=O)c1cccc(NC(=O)c2cc(C(F)(F)F)cnc2Oc2ccc3c(c2)NC(=O)C3)c1` [Compound 1601]: the IC50 by setting is: under setting [1], 200 to 500 nM; under setting [2], 200 to 500 nM. With `COc1c(Oc2nccc(C(F)(F)F)c2C(=O)Nc2cccc(C(N)=O)c2)ccc(F)c1F` [Compound 1652], the IC50 runs as follows: under setting [1], 20 to 40 nM; under setting [2], 20 to 40 nM. On to `COc1cc(Cl)ccc1Oc1nnc(C(F)(F)F)c(C)c1C(=O)Nc1cccc(S(C)(=N)=O)c1` (single isomer, unassigned) [Compound 1481, 3-(4-chloro-2-methoxyphenoxy)-5-methyl-N-(3-(S-methylsulfonimidoyl)phenyl)-6-(trifluoromethyl)pyridazine-4-carboxamide], for which the IC50 is, setting by setting: under setting [1], no more than 20 nM; under setting [2], no more than 20 nM. Take `COc1cc(C#N)ccc1Oc1ncc(C23CCOCC2C3)cc1C(=O)Nc1cccc(S(C)(=N)=O)c1` (stereo not shown) [Compound 1725, 2-(4-cyano-2-methoxy-phenoxy)-N-[3-(methylsulfonimidoyl)phenyl]-5-(3-oxabicyclo[4.1.0]heptan-6-yl)pyridine-3-carboxamide]: the IC50 runs as follows: under setting [1], 200 to 500 nM; under setting [2], 200 to 500 nM.

On to `CCc1c(C(F)(F)F)nnc(Oc2ccc(F)cc2OC)c1C(=O)Nc1cccc([S@@](C)(=N)=O)c1` [Compound 1518, (S)-5-ethyl-3-(4-fluoro-2-methoxyphenoxy)-N-(3-(S-methylsulfonimidoyl)phenyl)-6-(trifluoromethyl)pyridazine-4-carboxamide], for which the IC50 is no more than 20 nM under setting [1] and no more than 20 nM under setting [2]. As for `Cc1cc(F)ccc1Oc1ncc(C(F)(F)F)cc1C(=O)Nc1cccc([S@@](C)(=O)=NC(=O)CN(C)C(=O)OC(C)(C)C)c1` [Compound 1719, tert-butyl (R)-(2-(((3-(2-(4-fluoro-2-methylphenoxy)-5-(trifluoromethyl)nicotinamido)phenyl)(methyl)(oxo)-λ^6-sulfaneylidene)amino)-2-oxoethyl)(methyl)carbamate], the IC50 was no more than 20 nM under setting [1] and no more than 20 nM under setting [2]. Consider `CS(=N)(=O)c1cccc(NC(=O)c2cc(C(F)(F)F)cnc2OC2CC(C#N)C2)c1` (stereo not shown) [Compound 1665], for which the IC50 runs as follows: under setting [1], 200 to 500 nM; under setting [2], 200 to 500 nM. For the compound `CC(C#N)Oc1cc(F)c(Oc2ncc(C(F)(F)F)cc2C(=O)Nc2cccc(S(C)(=N)=O)c2)cc1F` (stereo not shown) [Compound 1689], the IC50 is, setting by setting: under setting [1], 40 to 200 nM; under setting [2], 40 to 200 nM. For `Cc1c(C(F)(F)F)nnc(Oc2ccc(OC(F)F)c(F)c2F)c1C(=O)Nc1cccc(S(C)(=N)=O)c1` (single isomer, unassigned) [Compound 1512, 3-[4-(difluoromethoxy)-2,3-difluorophenoxy]-N-{3-[imino(methyl)oxo-λ^6-sulfanyl]phenyl}-5-methyl-6-(trifluoromethyl)pyridazine-4-carboxamide], under setting [2], the IC50 was no more than 20 nM. `COc1cc(C#N)ccc1Oc1nc(C(F)(F)F)cc(C)c1C(=O)Nc1cccc([S@](C)(=N)=O)c1` [Compound 1730, (R)-2-(4-cyano-2-methoxyphenoxy)-4-methyl-N-(3-(S-methylsulfonimidoyl)phenyl)-6-(trifluoromethyl)nicotinamide]: the IC50 is, setting by setting: under setting [1], no more than 20 nM; under setting [2], no more than 20 nM. In the case of `Cc1c(C(F)(F)F)nnc(Oc2c(F)cc(OC(F)(F)F)cc2F)c1C(=O)Nc1cccc(S(C)(=O)=O)c1` [Compound 1423], the IC50 under setting [1] lay in the range of 200 to 500 nM and the IC50 under setting [2] was in the range of 200 to 500 nM.

Regarding `COc1c(Oc2nnc(C(F)(F)F)c(C)c2C(=O)Nc2cccnc2)ccc(F)c1F` [Compound 1475, 3-(3,4-difluoro-2-methoxy-phenoxy)-5-methyl-N-(3-pyridyl)-6-(trifluoromethyl)pyridazine-4-carboxamide], the IC50 was no more than 20 nM under setting [1] and no more than 20 nM under setting [2]. Regarding `COc1cc(F)c(F)cc1Oc1ncc(C(F)(F)F)cc1C(=O)Nc1cccc(S(C)(=O)=O)c1` [Compound 1615], the IC50 was no more than 20 nM under setting [1] and no more than 20 nM under setting [2]. On to `COc1c(Oc2ncc(C(F)(F)F)cc2C(=O)Nc2cccc(C(N)=O)c2)ccc(F)c1F` [Compound 1619], for which the IC50 under setting [1] is no more than 20 nM and the IC50 under setting [2] is no more than 20 nM. As to `COc1cc(C#N)ccc1Oc1nnc(C(F)(F)F)c(C)c1C(=O)Nc1cnc(C(N)=O)s1` [Compound 1538, 5-[[3-(4-cyano-2-methoxy-phenoxy)-5-methyl-6-(trifluoromethyl)pyridazine-4-carbonyl]amino]thiazole-2-carboxamide], the IC50 lay in the range of 40 to 200 nM under setting [1] and 40 to 200 nM under setting [2]. As to `Cc1cc(F)ccc1Oc1nccc(C(F)(F)F)c1C(=O)Nc1cccc(S(C)(=N)=O)c1` (stereo not shown) [Compound 1650], the IC50 reads like this: under setting [1], 40 to 200 nM; under setting [2], 40 to 200 nM. For `COc1cc(C#N)ccc1Oc1nnc(C(F)(F)F)c(C)c1C(=O)Nc1cccc(S(C)(=N)=O)c1` (stereo not shown) [Compound 25], the IC50 was no more than 20 nM under setting [1] and no more than 20 nM under setting [2]. Regarding `CS(=O)(=O)c1cccc(NC(=O)c2cc(C(F)(F)F)cnc2Oc2ccc(F)c3cnccc23)c1` [Compound 1583], the IC50 fell in the range of 20 to 40 nM under setting [1] and 20 to 40 nM under setting [2]. As to `COc1cc(C#N)ccc1Oc1nnc(C(F)(F)F)c(C)c1C(=O)Nc1cccc(C(=O)N2CCNCC2)c1` [Compound 1438, 3-(4-cyano-2-methoxy-phenoxy)-5-methyl-N-[3-(piperazine-1-carbonyl)phenyl]-6-(trifluoromethyl)pyridazine-4-carboxamide], the IC50 reads like this: under setting [1], 40 to 200 nM; under setting [2], 40 to 200 nM. For the compound `CC(C#N)Oc1cc(F)c(Oc2ncc(C(F)(F)F)cc2C(=O)Nc2ccc(C(N)=O)cc2)cc1F` (stereo not shown) [Compound 1688], the IC50 under setting [1] was 200 to 500 nM and the IC50 under setting [2] is 200 to 500 nM.

In the case of `COc1c(Oc2ncc(Br)cc2C(=O)Nc2cccc(S(C)(=N)=O)c2)ccc(F)c1F` (stereo not shown) [Compound 1567, 5-bromo-2-(3,4-difluoro-2-methoxy-phenoxy)-N-[3-(methylsulfonimidoyl)phenyl]pyridine-3-carboxamide], the IC50 was no more than 20 nM under setting [1] and no more than 20 nM under setting [2]. As to `Cc1c(C(F)(F)F)nnc(Oc2ccc(Cl)cc2F)c1C(=O)Nc1ccc(C(N)=O)cc1` [Compound 1404], the IC50 under setting [1] lay in the range of 40 to 200 nM and the IC50 under setting [2] was 40 to 200 nM. `COc1c(Oc2nc(C(F)(F)F)ccc2C(=O)Nc2cccc(S(C)(=N)=O)c2)ccc(F)c1F` (stereo not shown) [Compound 1729, 2-(3,4-difluoro-2-methoxy-phenoxy)-N-[3-(methylsulfonimidoyl)phenyl]-6-(trifluoromethyl)pyridine-3-carboxamide]: the IC50 is, setting by setting: under setting [1], no more than 20 nM; under setting [2], no more than 20 nM. For `COc1c(Oc2nnc3c(c2C(=O)Nc2cccc(C(N)=O)c2)CCC3)ccc(F)c1F` [Compound 1417], the IC50 by setting is: under setting [1], 200 to 500 nM; under setting [2], 200 to 500 nM. Take `COc1cc(C#N)ccc1Oc1nnc(C(F)(F)F)c(C)c1C(=O)Nc1ccc(C(N)=O)cc1` [Compound 1405]: the IC50 is no more than 20 nM under setting [1] and no more than 20 nM under setting [2]. `Cc1c(C(F)(F)F)nnc(Oc2ccc(OC(F)(F)F)cc2F)c1C(=O)Nc1cccc(S(C)(=O)=O)c1` [Compound 1467, 3-[2-fluoro-4-(trifluoromethoxy)phenoxy]-N-(3-methanesulfonylphenyl)-5-methyl-6-(trifluoromethyl)pyridazine-4-carboxamide]: the IC50 under setting [1] is no more than 20 nM and the IC50 under setting [2] is no more than 20 nM. For `COc1ccc(Oc2nnc(C(F)(F)F)c(C)c2C(=O)Nc2cccc(S(C)(=N)=O)c2)c(C)c1F` (stereo not shown) [Compound 1504, 3-(3-fluoro-4-methoxy-2-methylphenoxy)-N-{3-[imino(methyl)oxo-λ^6-sulfanyl]phenyl}-5-methyl-6-(trifluoromethyl)pyridazine-4-carboxamide], the IC50 was no more than 20 nM under setting [1] and no more than 20 nM under setting [2].

As to `Cn1cc(Oc2ncc(C(F)(F)F)cc2C(=O)Nc2cccc(S(C)(=O)=O)c2)cn1` [Compound 1610], the IC50 is, setting by setting: under setting [1], 200 to 500 nM; under setting [2], 200 to 500 nM.

For `CS(=N)(=O)c1cccc(NC(=O)c2cc(C(F)(F)F)cnc2Oc2cccnc2OC(F)(F)F)c1` (stereo not shown) [Compound 1636], the IC50 was no more than 20 nM under setting [1] and no more than 20 nM under setting [2].

Take `COc1cc(C#N)ccc1Oc1nnc(-c2ccc(C#N)cc2)c(C)c1C(=O)Nc1cccc([S@@](C)(=N)=O)c1` [Compound 1532, 3-(4-cyano-2-methoxyphenoxy)-6-(4-cyanophenyl)-N-{3-[(S)-imino(methyl)oxo-λ^6-sulfanyl]phenyl}-5-methylpyridazine-4-carboxamide]: the IC50 under setting [1] fell in the range of 40 to 200 nM and the IC50 under setting [2] fell in the range of 40 to 200 nM.
